According to ChEMBL document CHEMBL5154811, “Discovery of SPH5030, a Selective, Potent, and Irreversible Tyrosine Kinase Inhibitor for HER2-Amplified and HER2-Mutant Cancer Treatment” (J Med Chem, 2022):

molecular target: Receptor tyrosine-protein kinase erbB-2 (Homo sapiens, UniProt P04626); test: Inhibition of wild type human GST-tagged HER2 (676 to end residues) expressed in baculovirus infected Sf9 cells incubated for 30 mins in presence of ATP by HTRF analysis; settings: not given
Sequence (P04626 whole entry): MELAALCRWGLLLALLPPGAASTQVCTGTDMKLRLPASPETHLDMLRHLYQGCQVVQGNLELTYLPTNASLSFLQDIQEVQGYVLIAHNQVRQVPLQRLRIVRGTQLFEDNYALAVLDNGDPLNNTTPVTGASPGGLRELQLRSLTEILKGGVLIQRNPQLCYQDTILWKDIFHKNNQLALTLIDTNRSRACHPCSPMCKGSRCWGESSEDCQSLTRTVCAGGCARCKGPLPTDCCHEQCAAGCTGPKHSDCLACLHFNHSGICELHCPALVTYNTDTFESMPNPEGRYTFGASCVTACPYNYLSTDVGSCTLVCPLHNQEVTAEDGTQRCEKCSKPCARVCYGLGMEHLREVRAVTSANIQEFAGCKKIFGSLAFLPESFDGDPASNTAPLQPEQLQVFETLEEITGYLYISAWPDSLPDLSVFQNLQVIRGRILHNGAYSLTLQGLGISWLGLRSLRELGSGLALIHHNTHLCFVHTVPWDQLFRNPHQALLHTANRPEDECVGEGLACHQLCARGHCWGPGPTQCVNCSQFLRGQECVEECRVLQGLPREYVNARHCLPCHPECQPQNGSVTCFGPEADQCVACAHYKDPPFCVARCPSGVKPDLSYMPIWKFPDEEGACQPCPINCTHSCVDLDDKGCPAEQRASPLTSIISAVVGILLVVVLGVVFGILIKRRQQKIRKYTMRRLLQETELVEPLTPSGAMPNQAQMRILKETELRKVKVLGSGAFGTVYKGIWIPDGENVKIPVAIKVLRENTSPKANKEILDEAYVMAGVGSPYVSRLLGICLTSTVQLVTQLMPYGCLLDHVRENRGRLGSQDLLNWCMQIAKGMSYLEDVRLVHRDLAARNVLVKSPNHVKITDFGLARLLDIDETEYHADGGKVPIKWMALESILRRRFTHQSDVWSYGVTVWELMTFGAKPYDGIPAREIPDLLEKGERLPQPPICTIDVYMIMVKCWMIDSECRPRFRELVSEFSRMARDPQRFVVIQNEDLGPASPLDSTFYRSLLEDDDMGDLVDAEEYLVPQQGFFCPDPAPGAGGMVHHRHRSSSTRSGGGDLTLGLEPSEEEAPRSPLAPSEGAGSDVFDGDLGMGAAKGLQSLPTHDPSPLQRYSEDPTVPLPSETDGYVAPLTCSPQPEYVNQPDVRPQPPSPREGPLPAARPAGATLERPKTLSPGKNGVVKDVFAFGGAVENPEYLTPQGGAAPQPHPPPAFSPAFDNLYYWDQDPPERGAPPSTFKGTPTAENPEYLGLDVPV

IC50 [nM] | SMILES
1.43 | Cc1cc(Nc2ncnc3cc(O)c(NC(=O)/C=C/[C@H]4CCCN4C)cc23)ccc1Oc1ccn2ncnc2c1
16 | Cc1cc(Nc2ncnc3cc(O)c(NC(=O)/C=C/[C@H]4CCCN4C)cc23)ccc1Oc1cnn2cnnc2c1
62.3 | Cc1cc(Nc2c(C#N)cnc3ccc(NC(=O)/C=C/CN(C)C)cc23)ccc1Oc1cc2nncn2cn1
6.42 | Cc1cc(Nc2ncnc3cc(O)c(NC(=O)/C=C/[C@H]4CCCN4C)cc23)ccc1Oc1ccc2nccn2c1
1.4 | Cc1cc(Nc2ncnc3ccc(NC(=O)/C=C/[C@H]4CCCN4C)cc23)ccc1Oc1cc2nncn2cn1
6.31 | Cc1cc(Nc2ncnc3cc(O)c(NC(=O)/C=C/[C@H]4CCCN4C)cc23)ccc1Oc1ccn2cnnc2c1
10.8 | Cc1cc(Nc2c(C#N)cnc3ccc(NC(=O)/C=C/[C@H]4CCCN4C)cc23)ccc1Oc1cc2nncn2cn1
3.38 | CCOc1cc2ncnc(Nc3ccc(Oc4cc5nncn5cn4)c(C)c3)c2cc1NC(=O)/C(F)=C/[C@@H]1CCCN1C
7.3 | CCOc1cc2ncnc(Nc3ccc(Oc4cc5nncn5cn4)c(C)c3)c2cc1NC(=O)/C(F)=C\[C@H]1CCCN1C
4.05 | C=C(F)C(=O)Nc1cc2c(Nc3ccc(Oc4cc5nncn5cn4)c(C)c3)ncnc2cc1OCC

system: BT-474; test: Antiproliferative activity against human BT-474 cells assessed as inhibition of cell growth incubated for 72 hrs by Celltiter-Glo assay; type: functional, cell-based; settings: BT-474, 72 h

IC50 [nM] | SMILES
369 | COCC(=O)NC/C=C/c1ccc2ncc(C#N)c(Nc3ccc(Oc4cc5nncn5cn4)c(C)c3)c2c1
2.4 | Cc1cc(Nc2ncnc3cc(O)c(NC(=O)/C=C/[C@H]4CCCN4C)cc23)ccc1Oc1ccn2ncnc2c1
20.8 | Cc1cc(Nc2ncnc3cc(O)c(NC(=O)/C=C/[C@H]4CCCN4C)cc23)ccc1Oc1cnn2cnnc2c1
14.9 | Cc1cc(Nc2c(C#N)cnc3ccc(NC(=O)/C=C/CN(C)C)cc23)ccc1Oc1cc2nncn2cn1
5.22 | Cc1cc(Nc2ncnc3cc(O)c(NC(=O)/C=C/[C@H]4CCCN4C)cc23)ccc1Oc1ccc2nccn2c1
3.06 | Cc1cc(Nc2ncnc3ccc(NC(=O)/C=C/[C@H]4CCCN4C)cc23)ccc1Oc1cc2nncn2cn1
26.8 | Cc1cc(Nc2ncnc3cc(O)c(NC(=O)/C=C/[C@H]4CCCN4C)cc23)ccc1Oc1ccn2cnnc2c1
7.44 | Cc1cc(Nc2c(C#N)cnc3ccc(NC(=O)/C=C/[C@H]4CCCN4C)cc23)ccc1Oc1cc2nncn2cn1
2.65 | CCOc1cc2ncnc(Nc3ccc(Oc4cc5nncn5cn4)c(C)c3)c2cc1NC(=O)/C(F)=C/[C@@H]1CCCN1C
3.36 | CCOc1cc2ncnc(Nc3ccc(Oc4cc5nncn5cn4)c(C)c3)c2cc1NC(=O)/C(F)=C\[C@H]1CCCN1C
3.88 | C=C(F)C(=O)Nc1cc2c(Nc3ccc(Oc4cc5nncn5cn4)c(C)c3)ncnc2cc1OCC

system: NCI-N87; test: Antiproliferative activity against human NCI-N87 cells assessed as inhibition of cell growth incubated for 72 hrs by Celltiter-Glo assay; type: functional, cell-based; settings: NCI-N87, 72 h

SMILES | IC50 [nM]
COCC(=O)NC/C=C/c1ccc2ncc(C#N)c(Nc3ccc(Oc4cc5nncn5cn4)c(C)c3)c2c1 | 441
Cc1cc(Nc2ncnc3cc(O)c(NC(=O)/C=C/[C@H]4CCCN4C)cc23)ccc1Oc1ccn2ncnc2c1 | 2.65
Cc1cc(Nc2ncnc3cc(O)c(NC(=O)/C=C/[C@H]4CCCN4C)cc23)ccc1Oc1cnn2cnnc2c1 | 28.3
Cc1cc(Nc2c(C#N)cnc3ccc(NC(=O)/C=C/CN(C)C)cc23)ccc1Oc1cc2nncn2cn1 | 19.2
Cc1cc(Nc2ncnc3cc(O)c(NC(=O)/C=C/[C@H]4CCCN4C)cc23)ccc1Oc1ccc2nccn2c1 | 4.08
Cc1cc(Nc2ncnc3ccc(NC(=O)/C=C/[C@H]4CCCN4C)cc23)ccc1Oc1cc2nncn2cn1 | 2.17
Cc1cc(Nc2ncnc3cc(O)c(NC(=O)/C=C/[C@H]4CCCN4C)cc23)ccc1Oc1ccn2cnnc2c1 | 32.9
Cc1cc(Nc2c(C#N)cnc3ccc(NC(=O)/C=C/[C@H]4CCCN4C)cc23)ccc1Oc1cc2nncn2cn1 | 6.7
CCOc1cc2ncnc(Nc3ccc(Oc4cc5nncn5cn4)c(C)c3)c2cc1NC(=O)/C(F)=C/[C@@H]1CCCN1C | 1.55
C=C(F)C(=O)Nc1cc2c(Nc3ccc(Oc4cc5nncn5cn4)c(C)c3)ncnc2cc1OCC | 6.56

system: not listed separately; test: Metabolic stability in human liver microsomes assessed as intrinsic clearance at 1 uM preincubated for 5 mins followed by NADPH addition by LC-MS/MS analysis; type: ADME, Microsome; settings: read-out: CLH

microsomal CLint at 1 µM [µL/min/mg] | SMILES
16.9 | CCOc1cc2ncnc(Nc3ccc(Oc4cc5nncn5cn4)c(C)c3)c2cc1NC(=O)/C(F)=C/[C@@H]1CCCN1C
24.2 | CCOc1cc2ncnc(Nc3ccc(Oc4cc5nncn5cn4)c(C)c3)c2cc1NC(=O)/C(F)=C\[C@H]1CCCN1C
40 | C=C(F)C(=O)Nc1cc2c(Nc3ccc(Oc4cc5nncn5cn4)c(C)c3)ncnc2cc1OCC

molecular target: Epidermal growth factor receptor (Homo sapiens, UniProt P00533); test: Inhibition of wild type human N-terminal GST tagged EGFR (669 to 1210 residues) expressed in Sf21 insect cells incubated for 30 mins in presence of ATP by HTRF analysis; settings: not given
Sequence (P00533 whole entry, the tested form may be a part): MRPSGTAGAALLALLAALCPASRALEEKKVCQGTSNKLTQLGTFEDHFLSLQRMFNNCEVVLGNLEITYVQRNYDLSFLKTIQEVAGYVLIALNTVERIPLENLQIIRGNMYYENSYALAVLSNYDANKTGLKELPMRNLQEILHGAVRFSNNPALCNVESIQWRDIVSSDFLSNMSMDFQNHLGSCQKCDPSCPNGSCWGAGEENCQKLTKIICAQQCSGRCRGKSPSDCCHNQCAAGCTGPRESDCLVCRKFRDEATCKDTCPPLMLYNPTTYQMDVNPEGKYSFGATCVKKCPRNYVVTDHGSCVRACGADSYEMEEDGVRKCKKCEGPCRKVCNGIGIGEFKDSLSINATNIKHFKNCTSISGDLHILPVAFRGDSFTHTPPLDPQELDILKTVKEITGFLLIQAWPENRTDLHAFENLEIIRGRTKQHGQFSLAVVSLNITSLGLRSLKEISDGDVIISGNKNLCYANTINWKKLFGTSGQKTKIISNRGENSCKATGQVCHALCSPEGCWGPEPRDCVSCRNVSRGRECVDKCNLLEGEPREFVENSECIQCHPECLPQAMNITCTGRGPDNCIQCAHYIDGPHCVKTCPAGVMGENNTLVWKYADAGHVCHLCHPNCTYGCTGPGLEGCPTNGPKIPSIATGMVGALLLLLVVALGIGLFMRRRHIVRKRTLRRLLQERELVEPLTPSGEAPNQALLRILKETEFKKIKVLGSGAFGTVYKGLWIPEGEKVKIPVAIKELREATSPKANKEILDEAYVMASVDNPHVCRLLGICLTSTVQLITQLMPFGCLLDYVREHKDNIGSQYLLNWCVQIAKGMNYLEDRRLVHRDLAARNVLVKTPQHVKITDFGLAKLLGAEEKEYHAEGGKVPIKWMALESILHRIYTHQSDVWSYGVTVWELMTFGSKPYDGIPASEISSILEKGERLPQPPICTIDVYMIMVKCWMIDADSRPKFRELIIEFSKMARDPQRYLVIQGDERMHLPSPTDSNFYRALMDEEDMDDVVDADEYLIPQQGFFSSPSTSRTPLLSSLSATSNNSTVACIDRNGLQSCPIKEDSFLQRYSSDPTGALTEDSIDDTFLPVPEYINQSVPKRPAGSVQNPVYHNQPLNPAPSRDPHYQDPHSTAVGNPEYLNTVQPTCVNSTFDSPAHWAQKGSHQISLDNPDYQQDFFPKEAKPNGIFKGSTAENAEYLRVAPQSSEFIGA

IC50 [nM] | SMILES
1830 | COCC(=O)NC/C=C/c1ccc2ncc(C#N)c(Nc3ccc(Oc4cc5nncn5cn4)c(C)c3)c2c1
2.8 | Cc1cc(Nc2ncnc3cc(O)c(NC(=O)/C=C/[C@H]4CCCN4C)cc23)ccc1Oc1ccn2ncnc2c1
11.8 | Cc1cc(Nc2ncnc3cc(O)c(NC(=O)/C=C/[C@H]4CCCN4C)cc23)ccc1Oc1cnn2cnnc2c1
20.7 | Cc1cc(Nc2c(C#N)cnc3ccc(NC(=O)/C=C/CN(C)C)cc23)ccc1Oc1cc2nncn2cn1
2.32 | Cc1cc(Nc2ncnc3cc(O)c(NC(=O)/C=C/[C@H]4CCCN4C)cc23)ccc1Oc1ccc2nccn2c1
1.19 | Cc1cc(Nc2ncnc3ccc(NC(=O)/C=C/[C@H]4CCCN4C)cc23)ccc1Oc1cc2nncn2cn1
22.7 | Cc1cc(Nc2ncnc3cc(O)c(NC(=O)/C=C/[C@H]4CCCN4C)cc23)ccc1Oc1ccn2cnnc2c1
3.13 | Cc1cc(Nc2c(C#N)cnc3ccc(NC(=O)/C=C/[C@H]4CCCN4C)cc23)ccc1Oc1cc2nncn2cn1
32.1 | CCOc1cc2ncnc(Nc3ccc(Oc4cc5nncn5cn4)c(C)c3)c2cc1NC(=O)/C(F)=C/[C@@H]1CCCN1C
86.3 | CCOc1cc2ncnc(Nc3ccc(Oc4cc5nncn5cn4)c(C)c3)c2cc1NC(=O)/C(F)=C\[C@H]1CCCN1C
9.6 | C=C(F)C(=O)Nc1cc2c(Nc3ccc(Oc4cc5nncn5cn4)c(C)c3)ncnc2cc1OCC

system: not listed separately; test: Metabolic stability in human liver microsomes assessed as half life at 1 uM preincubated for 5 mins followed by NADPH addition by LC-MS/MS analysis; type: ADME, Microsome; settings: not given

half-life at 1 µM [min] | SMILES
82 | CCOc1cc2ncnc(Nc3ccc(Oc4cc5nncn5cn4)c(C)c3)c2cc1NC(=O)/C(F)=C/[C@@H]1CCCN1C
57.2 | CCOc1cc2ncnc(Nc3ccc(Oc4cc5nncn5cn4)c(C)c3)c2cc1NC(=O)/C(F)=C\[C@H]1CCCN1C
34.6 | C=C(F)C(=O)Nc1cc2c(Nc3ccc(Oc4cc5nncn5cn4)c(C)c3)ncnc2cc1OCC
